Residue numbers refer to the chain shown, from its start.
Legend:
Type in all cases: cell-based
AR protein [1] = target: T1, AR protein (Homo sapiens, UniProt P10275, T878A); experiment: AR protein degradation in LNCaP cells (Western blot); conditions: 8 hours
T1 construct: host or cells: LNCaP FGC
T1 sequence (P10275 1-920 T878A): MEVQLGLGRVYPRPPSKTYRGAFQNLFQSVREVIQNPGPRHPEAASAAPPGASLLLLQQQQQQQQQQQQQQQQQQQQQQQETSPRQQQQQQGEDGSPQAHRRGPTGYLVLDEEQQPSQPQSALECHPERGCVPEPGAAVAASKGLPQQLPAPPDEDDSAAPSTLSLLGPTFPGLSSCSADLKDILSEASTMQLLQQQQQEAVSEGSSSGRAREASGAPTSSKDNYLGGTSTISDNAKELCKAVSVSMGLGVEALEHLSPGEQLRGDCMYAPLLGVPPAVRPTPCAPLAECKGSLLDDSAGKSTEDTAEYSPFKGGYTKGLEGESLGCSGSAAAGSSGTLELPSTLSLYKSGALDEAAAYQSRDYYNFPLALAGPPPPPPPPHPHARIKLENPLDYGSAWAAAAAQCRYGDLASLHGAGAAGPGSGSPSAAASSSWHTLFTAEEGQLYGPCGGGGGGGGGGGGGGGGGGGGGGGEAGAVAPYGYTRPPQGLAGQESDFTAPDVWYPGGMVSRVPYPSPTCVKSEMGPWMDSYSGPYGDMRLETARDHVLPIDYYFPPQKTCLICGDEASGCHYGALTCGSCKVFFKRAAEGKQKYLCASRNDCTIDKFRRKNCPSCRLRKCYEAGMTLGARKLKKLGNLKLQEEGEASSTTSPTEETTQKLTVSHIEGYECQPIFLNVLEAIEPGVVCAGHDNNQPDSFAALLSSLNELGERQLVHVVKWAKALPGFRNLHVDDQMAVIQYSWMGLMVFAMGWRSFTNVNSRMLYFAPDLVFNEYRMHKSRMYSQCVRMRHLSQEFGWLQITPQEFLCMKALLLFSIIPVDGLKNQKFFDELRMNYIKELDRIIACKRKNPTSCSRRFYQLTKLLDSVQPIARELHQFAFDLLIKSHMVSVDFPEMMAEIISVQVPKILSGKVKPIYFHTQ
Experimental: At the same time, the corresponding solvent control was set and cultured for 8 hours. After 8 hours of culture, the culture medium was removed, the cells were washed with PBS, and RIPA lysis buffer containing 1% Protease Inhibitor Cocktail was added. After lysis and centrifugation, the total protein extract was obtained, and the protein concentration in the extract was detected by BCA method. Protein electrophoresis was performed using SDS-PAGE, and then the protein was transferred to a PVDF (Millipore Sigma catalog number PSRP010R5) membrane at a constant voltage of 100V for 60 minutes. The PVDF membrane was placed in a 5% milk powder 1 ×TBST solution and blocked at room temperature for 1 hour. […] The primary antibody solution was discarded and the PVDF membrane was washed with 1×TBST for 5 minutes each time, for three times. […] The secondary antibody solution was discarded and the PVDF membrane was washed with 1 ×TBST for 5 minutes each time, for three times. A dual-color infrared laser imaging system (Licor catalog number Odyssey CLX) was used for Western membrane imaging. The Image Studio software was used to analyze the grayscale of the bands. GAPDH protein bands were also detected for each sample as the reference. The AR protein degradation rate of the compound and the positive control sample was calculated based on the grayscale of the protein bands.

VCaP cells = experiment: Inhibition of VCaP cell proliferation (WST-8); conditions: Homo sapiens, 168 hours
Experimental: On the first day of the experiment, VCaP cells were seeded at a density of 15,000 cells/well in a 96-well plate using DMEM medium containing 10% fetal bovine serum, with 100µL of cell suspension per well, and cultured overnight in a cell incubator at 37°C and 5% CO2. On the second day, 100µL of the compound of the present invention and the positive control ARV-110 (source: Anaiji) prepared in culture medium at different concentrations were added to each well. The final concentration of the compound was 9 concentration points of 5-fold serial dilution starting from 10 µM. […] On the ninth day, the 96-well cell culture plate was removed and 1/10 volume of WST-8 (Beytime, C0040) reagent was added to each well. The absorbance at 450nm was measured using a microplate reader (TECAN, F50).

LNCaP cells = experiment: Inhibition of LNCaP cell proliferation (WST-8); conditions: Homo sapiens, LNCaP FGC cells, 96 hours
Experimental: The inhibitory activity of compounds disclosed in the present invention on LNCaP cell proliferation
The cells were cultured overnight in a 37°C, 5% CO2 cell incubator. […] The final concentration of the compound was 9 concentration points of 5-fold serial dilution starting from 10 µM. […] The cells were cultured in a cell culture incubator at 37°C and 5% CO2 for 96 hours. On the sixth day, the 96-well cell culture plate was removed, and 1/10 volume of WST-8 (Beytime, C0040) reagent was added to each well. The absorbance at 450 nm was detected using a microplate reader (TECAN, F50).

AR protein [2] = target: T2, AR protein (Homo sapiens, UniProt P10275); experiment: AR protein degradation in VCaP cells (Western blot); conditions: 8h
T2 construct: host or cells: VCaP
T2 sequence (P10275 1-920): T1 sequence (P10275 1-920 T878A) with A878T
Experimental: The degradation activity of the compounds disclosed in the present invention on AR protein in VCaP cells (cell source: ATCC)
The AR-positive human prostate cancer cells VCaP cultured in DMEM (GiBco catalog number 11995-065) containing 10% FBS (Hyclone catalog number SH30406.05) was inoculated in a six-well microplate (Thermo catalog number 140675) at a concentration of 3×10^5 cells/ well. After being cultured overnight in a carbon dioxide incubator (ESCO), the prepared compound of the present invention and the positive control sample ARV-766 (Annaiji) solution of different concentrations were added at a volume of 1 µL/well to make the final concentrations of the compound and the positive control sample reach 5nM and 0.5nM, respectively. At the same time, the corresponding solvent control was set and cultured for 8h. After 8h of culture, the culture medium was removed, and the cells were washed with PBS. RIPA lysis buffer containing 1% Protease Inhibitor Cocktail was added. After lysis and centrifugation, a total protein extract was obtained, and the protein concentration in the extract was detected by BCA method. Protein electrophoresis was performed using SDS-PAGE, and then the protein was transferred to a PVDF (Millipore Sigma catalog number PSRP010R5) membrane at a constant voltage of 100V for 60min. The PVDF membrane was placed in a 5% milk powder 1×TBST solution and blocked at room temperature for 1h. The primary antibody solution (Anti-Androgen receptor, Cell Signaling Technology catalog number: 5153S; 1:2000 dilution) was prepared and was incubated at 4°C overnight. The primary antibody solution was discarded and the PVDF membrane was washed with 1×TBST for 5 minutes each time, for three times. The secondary antibody solution (Thermo catalog number SA5-35571; 1:7500 dilution) was prepared and was incubated at room temperature for 1 hour. The secondary antibody solution was discarded and the PVDF membrane was washed with 1×TBST for 5 minutes each time, for three times. A dual-color infrared laser imaging system (Licor catalog number Odyssey CLX) was used for Western membrane imaging. Image Studio software was used to analyze the grayscale of the bands. GAPDH protein bands were also detected for each sample as the reference. The AR protein degradation rate of the compound and the positive control sample was calculated based on the grayscale of the protein bands.
Table 7 Degradation rate of AR protein in VCaP cells by the compounds disclosed in the present invention

Structure (SMILES) | IC50 (VCaP cells) [µM] | IC50 (LNCaP cells) [µM] | also measured
C[C@H]1CC2(CCN(c3ccc(N4CCC(CN5CC6(CCC7(CC6)COc6c7ccc7c6CN(C6CCC(=O)NC6=O)C7=O)C5)CC4)cc3)CC2)CN1c1ccc(C#N)c(Cl)c1 (stereo partly drawn) [A-P-6, 2-chloro-4-((3S)-8-(4-(4-((7'-(2,6-dioxopiperidin-3-yl)-6'-oxo-7',8'-dihydro-2'H,6'H-dipyrazole[azetidine-3,1'-cyclohexane-4',3'-furo[2,3-e]isoindol]-1-yl)methyl)piperidin-1-yl)phenyl)-3-methyl-2,8-diazaspiro[4.5]decan-2-yl)benzonitrile] | 0.00016 | 1.02 | Degradation of AR protein in LNCaP cells, 10 nM (%) (AR protein [1]; 10 nM): 58%; Degradation of AR protein in LNCaP cells, 100 nM (%) (AR protein [1]; 100 nM): 60%
COc1cc(O[C@H]2C(C)(C)[C@H](NC(=O)c3ccc(N4CCC(CN5CCC6(CC5)COc5c6ccc6c5n(C)c(=O)n6C5CCC(=O)NC5=O)CC4)cc3)C2(C)C)ccc1C#N (some centres unmarked) [A-P-28] |  | 20.7 | percent AR protein degradation at a fixed concentration at 0.01 µM (AR protein [1]; 10 nM): 64%; percent AR protein degradation at a fixed concentration at 0.1 µM (AR protein [1]; 100 nM): 32%; AR protein degradation rate at fixed concentration (%) at 0.0005 µM (AR protein [2]; 0.5 nM): 80%; AR protein degradation rate at fixed concentration (%) at 0.005 µM (AR protein [2]; 5 nM): 80%
C[C@H]1CC2(CCN(c3ccc(N4CCC(CN5CCN6c7cc(F)c(C(=O)N[C@H]8CCC(=O)NC8=O)cc7OC[C@H]6C5)CC4)cc3)CC2)CN1c1ccc(C#N)c(Cl)c1 [A-P-59, (R)-3-((1-(4-((S)-2-(3-chloro-4-cyanophenyl)-3-methyl-2,8-diazaspiro[4.5]decan-8-yl)phenyl)piperidin-4-yl)methyl)-N-((S)-2,6-dioxopiperidin-3-yl)-9-fluoro-1,2,3,4,4a,5-hexahydrobenzo[b]pyrazi no[1,2-d][1,4]oxazine-8-carboxamide] | 0.16 | 0.15 | 
C[C@H]1CC2(CCN(c3ccc(C(=O)N4CCC(CN5CCN6c7cc(F)c(C(=O)N[C@H]8CCC(=O)NC8=O)cc7OC[C@H]6C5)CC4)cc3)CC2)CN1c1ccc(C#N)c(Cl)c1 [A-P-60] | 0.94 | 0.69 | 
COc1cc2c(cc1C(=O)N[C@H]1CCC(=O)NC1=O)OC[C@H]1CN(CC3CCN(c4ccc(N5CCC6(CC5)C[C@H](C)N(c5ccc(C#N)c(Cl)c5)C6)cc4)CC3)CCN21 [A-P-75] | 0.042 | 0.35 | 
COc1cc2c(cc1C(=O)N[C@H]1CCC(=O)NC1=O)OC[C@H]1CN(CC3CCN(C(=O)c4ccc(N5CCC6(CC5)C[C@H](C)N(c5ccc(C#N)c(Cl)c5)C6)cc4)CC3)CCN21 [A-P-76] | 0.078 | 2.84 | 
C[C@H]1CC2(CCN(c3ccc(C(=O)N4CCC(CN5CCC6(CC5)COc5cc(NC7CCC(=O)NC7=O)ccc56)CC4)cc3)CC2)CN1c1ccc(C#N)c(Cl)c1 (some centres unmarked) [A-P-87, 2-chloro-4-((3 S)-8-(4-(4-((6-((2,6-dioxopiperidin-3-yl)amino)-2H-spiro[benzofuran-3,4'-piperidin]-1'-yl)methyl)piperidin-1-carbonyl)phenyl)-3-methyl-2,8-diazaspiro[4.5]decan-2-yl)benzonitrile] | 0.0014 | 0.14 | 
C[C@H]1CC2(CCN(c3ccc(C(=O)N4CCC(CN5CCC6(CC5)Cc5ccc(NC7CCC(=O)NC7=O)cc5O6)CC4)cc3)CC2)CN1c1ccc(C#N)c(Cl)c1 (stereo partly drawn) [A-P-94, 2-chloro-4-((3S)-8-(4-(4-((6-((2,6-dioxopiperidin-3-yl)amino)-3H-spiro[benzofuran-2,4'-piperidin]-1'-yl)methyl)piperidin-1-carbonyl)phenyl)-3-methyl-2,8-diazaspiro[4.5]decan-2-yl)benzonitrile] | 0.0015 | 0.39 | 
C[C@H]1CC2(CCN(c3ccc(C(=O)N4CCC(CN5CCC6(CC5)COc5ccc(NC7CCC(=O)NC7=O)cc56)CC4)cc3)CC2)CN1c1ccc(C#N)c(Cl)c1 (some centres unmarked) [A-P-98, 2-chloro-4-((3 S)-8-(4-(4-((5-((2,6-dioxopiperidin-3-yl)amino)-2H-spiro[benzofuran-3,4'-piperidin]-1'-yl)methyl)piperidin-1-carbonyl)phenyl)-3-methyl-2,8-diazaspiro[4.5]decan-2-yl)benzonitrile] | 0.006 | 0.43 | 

Reference: patent EP4722219A1 (Gan & Lee Pharmaceuticals Co., Ltd., priority 2023, dated 2024)
